Assay results: patent US8735620B2, “Processes for preparing (E)-styrylbenzylsulfone compounds and uses thereof for treating proliferative disorders” (priority 2008, dated 2014)
pIC50: −log10 of the molar value.

Assays:
MES-SA = test: Tumor cell killing, MES-SA (parental uterine sarcoma); type: cell-based, human; conditions: Homo sapiens; parental cell line MES-SA, 96 h dose response; read-out: IC50
Description: (§1) A. 6aa inhibits the growth of parental (MES-SA) and Paclitaxel resistant (MES-SA/DX5) cell lines with equal efficiency. The parental uterine sarcoma cells and the MDR positive (MES-SA/DX5) cells were plated into 6 well dishes and treated with various concentrations of 6aa and Paclitaxel for 96 h. The number of viable cells from duplicate plates was determined by trypan blue exclusion. B. Soft Agar Assays. MIA-PaCa-2 cells (1.0×10^5) were plated in soft agar containing various concentrations of each compound in triplicates. After three weeks of growth, the plates were stained for 48 h using 0.05% nitroblue tetrazolium solution. Representative plates were photographed using an Olympus stereoscope mounted with a Sony digital camera system (DKC5000, Sony Inc). Tissue Culture and Reagents: […] Cell lines were purchased from ATCC. Cell lines were routinely grown in DMEM or RPM1 (CellGro) supplemented with 10% fetal bovine serum (Atlas) and 1 unit/mL penicillin-streptomycin (Gibco). A number of tumor cell lines were tested using a dose response end point assay system. The cells were grown in either DMEM or RPMI supplemented with 10% fetal bovine serum and 1 unit/mL Penicillin-Streptomycin solution. […] Cell counts were determined from duplicate wells after 96 h of treatment. The total number of viable cells was determined by trypan blue exclusion.

MES-SA/DX5 = test: Tumor cell killing, MES-SA/DX5 (multidrug resistant subline); type: cell-based, human
Description: as §1

MIA-PaCa-2 cells = test: Soft agar colony formation, MIA-PaCa-2; type: cell-based, human
Description: FIG. 1 Anti-tumor effects of (E)-2,4,6-Trimethoxystyryl-3-Hydroxy-4-Methoxybenzyl Sulfone (6aa). A. 6aa inhibits the growth of parental (MES-SA) and Paclitaxel resistant (MES-SA/DX5) cell lines with equal efficiency. The parental uterine sarcoma cells and the MDR positive (MES-SA/DX5) cells were plated into 6 well dishes and treated with various concentrations of 6aa and Paclitaxel for 96 h. The number of viable cells from duplicate plates was determined by trypan blue exclusion. B. Soft Agar Assays. MIA-PaCa-2 cells (1.0×10^5) were plated in soft agar containing various concentrations of each compound in triplicates. After three weeks of growth, the plates were stained for 48 h using 0.05% nitroblue tetrazolium solution. Representative plates were photographed using an Olympus stereoscope mounted with a Sony digital camera system (DKC5000, Sony Inc).
The soft agar plates were prepared as described by Cosenza, et al (Cosenza, S. C. et al. In Cell Growth, Differentiation and Senescence, Studzinski, G. P., Ed.; Oxford University Press: 1999, 161-176.). Briefly, Noble bottom agar (0.8%) was plated onto 60 mm tissue culture plates. Exponentially growing MIA-PaCa-2 cells (1.0×10^5) were mixed with growth medium with various concentrations of each compound and mixed with Noble agar to a final concentration of 0.4%. Each concentration was plated in triplicate. The top agar was allowed to solidify and the plates were then incubated at 5% CO2 at 37° C. for 3 weeks. The plates were then stained with 0.05% nitroblue tetrazolium (NBT) solution and representative plates were photographed using an Olympus stereoscope mounted with a Sony digital camera system (DKC5000, Sony Inc).

BT20 = test: Soft agar colony formation, BT20; type: cell-based, human; conditions: BT20, dose dependent
[1] = tested on: BT20 (human breast tumor cell line); test: Cytotoxicity assay (trypan blue exclusion, 96 h), BT20; type: cell-based; conditions: BT20, 96 h treatment
Description: (§2) Tissue Culture and Reagents: Paclitaxel was purchased from Sigma. Cell lines were purchased from ATCC. Cell lines were routinely grown in DMEM or RPM1 (CellGro) supplemented with 10% fetal bovine serum (Atlas) and 1 unit/mL penicillin-streptomycin (Gibco).

[2] = tested on: DLD1 (human colorectal tumor cell line); test: Cytotoxicity assay (trypan blue exclusion, 96 h), DLD1; type: cell-based; conditions: DLD1, 96 h treatment; read-out: DLD1 IC50
Description: as §2

[3] = Single dose and repeat-dose toxicology studies in mice; type: in vivo
[4] = tested on: DU145 (human prostate tumor cell line); test: Cytotoxicity assay (trypan blue exclusion, 96 h), DU145; type: cell-based; conditions: DU145, 96 h treatment; read-out: DU145 IC50
Description: as §2

[5] = Acute and repeat toxicity studies in rats; type: in vivo; conditions: intravenous
Description: Single dose and repeat-dose (28 daily injections) toxicology studies were carried out with one water-soluble form of this series (6ab) to assess the safety of intravenously administered drug in rats.

[6] = tested on: BT20 human breast carcinoma xenograft; test: Nude mouse xenograft assay
Description: Female athymic (NCr-nu/nu) mice were injected subcutaneously with 0.5-1×10^7 ER-negative human breast tumor cells (BT-20) in 0.2 mL of PBS and the tumors allowed to grow to a size of 100-150 mm^3 in size in about 14 days. The mice were then paired such that the pairs harbored equal sized tumors, which were then used to test the therapeutic effects of 6s and 6ab. A Of the pairs, the animals were treated with either 50 mg/kg 6s following a Q4D schedule or 25 mg/kg using a Q2D schedule or vehicle (DMSO) control. The tumor size was then measured on alternate days in two dimensions and the volume determined using either of the following equations: 1: V=(L×(S^2))π/6); where L is the longer and S is the shorter of the two measurements. B. 6ab was dissolved in PBS and was administered intravenously (50 mg/kg) through the tail vein on every alternate day. Tumor measurements were done as in materials and methods.
Female athymic (NCR-nu/nu, Taconic) nude mice were injected with 0.5-1.0×10^7 BT20 cells subcutaneously in the hind leg using a 1 mL tuberculin syringe equipped with a 271/2 gauge needle. Approximately 14 days later, mice were paired (N=8) and injected with 6ab or Phosphate buffered saline as the vehicle control. The intravenous injections were performed in the mouse tail vein using a 1 mL tuberculin syringe equipped with a 30 gauge needle. The animals were injected following a Q2D×3 schedule. Tumor measurements (two dimensions) were done three times per week using traceable digital vernier calipers (Fisher).

[7] = tested on: BT20, DU145, H157 and DLD1 cell lines; test: In vitro cytotoxicity, four human tumor cell lines (SAR discussion); type: cell-based; conditions: four human tumor cell lines
Description: A number of tumor cell lines were tested using a dose response end point assay system. The cells were grown in either DMEM or RPMI supplemented with 10% fetal bovine serum and 1 unit/mL Penicillin-Streptomycin solution. The tumor cells were plated into 6 well dishes at a cell density of 1.0×10^5 cells/mL/well and compounds were added 24 h later at various concentrations. Cell counts were determined from duplicate wells after 96 h of treatment. The total number of viable cells was determined by trypan blue exclusion.
Following the synthesis of this group of compounds, their in vitro cytotoxicity was assessed using four different human tumor cell lines derived from human breast (BT20), prostate (DU145), lung (H157) and colorectal (DLD1) cancers. […] In a majority of the compounds described here, a methoxy group was kept constant at the 4th position on the aromatic ring of the benzyl moiety.

[8] = tested on: H157 (human lung tumor cell line); test: Cytotoxicity assay (trypan blue exclusion, 96 h), H157; type: cell-based; conditions: H157, 96 h treatment; read-out: H157 IC50
Description: as §2

[9] = tested on: mantle cell lymphoma cell lines; conditions: Park et al Oncogene 2007; cited from earlier work
DU145 = test: Soft agar colony formation, DU145; type: cell-based, human; conditions: DU145, dose dependent
[10] = single dose and repeat-dose (28 daily injections)

For `CC(=O)O[C@H]1C(=O)[C@@]2(C)[C@H]([C@H](OC(=O)c3ccccc3)[C@]3(O)C[C@H](OC(=O)[C@H](O)[C@@H](NC(=O)c4ccccc4)c4ccccc4)C(C)=C1C3(C)C)[C@]1(OC(C)=O)CO[C@@H]1C[C@@H]2O` [Paclitaxel, reference compound], the pIC50 (MES-SA) was 8.40, the pIC50 (MES-SA/DX5; Homo sapiens, MDR positive subline MES-SA/DX5, 96 h dose response, read-out: IC50) was 6.12 and the “fold resistance of MDR positive subline versus parental cell line” value (MES-SA/DX5; MES-SA/DX5 vs MES-SA) was “greater than 100 fold”. The “potency in soft agar relative to 6aa and 6ab” value (MIA-PaCa-2 cells; positive control, FIG. 1b) was “slightly lower potency”.
For “(E)-2,4,6-Trimethoxystyryl-3^1-O-phosphate disodium-4-methoxybenzyl Sulfone [6ab]”, the “growth of tumor cells in soft agar” value (BT20) was “complete inhibition of the growth of tumor cells”, the pIC50 [1] was 8.30 and the pIC50 [2] was 8.15. The “drug levels in circulation” value [3] was “High, dose dependent, drug levels were sustained in circulation”, the “hematotoxicity, liver damage, neurotoxicity” value [3, 10] was “did not cause hematotoxicity (no myleosuppression), liver damage or detectable neurotoxicity” and the pIC50 [4] was 8.60. For the same compound, the “drug levels in circulation” value [5] was “High dose dependent drug levels were sustained in circulation”, the “hematotoxicity, liver damage, neurotoxicity” value [5, 10] was “did not cause hematotoxicity (no myleosuppression), liver damage or any detectable neurotoxicity” and the “growth of tumor cells in soft agar” value (MIA-PaCa-2 cells; MIA-PaCa-2, dose dependent, three weeks) was “complete inhibition of the growth of tumor cells”. The “tumor growth in xenograft model” value ([6]; 50 mg/kg IV tail vein, alternate days, 21 days) was “readily inhibited tumor growth”, the “tumor volume response of the majority of the mice” value ([6]; 8 mice per group) was “growth arrest or a gradual reduction in their tumor volume” and the animal deaths ([6]; IV, Q2D×3 schedule) was “nor were there any animal deaths”. The body weight loss ([6]; IV, Q2D×3 schedule) was “Body weight loss of more than 10% was not observed”, the “cytotoxic activity, SAR statement” value [7] was “did not alter the potency” and the pIC50 [8] was 8.15. The “effect on mantle cell lymphoma cell lines” value [9] was “altered the growth and cell cycle status”, the “water solubility” value (Water solubility) was “highly water-soluble” and the “growth of tumor cells in soft agar” value (DU145) was “complete inhibition of the growth of tumor cells”.
